Laboratory results from ChEMBL document CHEMBL4483862, “Open-source discovery of chemical leads for next-generation chemoprotective antimalarials” (2018).

Tested on: Plasmodium berghei
Assay: Luciferase/luciferin-expressing antifolate-resistant parasites were used to infect a culture of HepG2 cells that were pre-incubated with compounds. Infected hepatocytes emit light due to the luciferase reaction. Assay results are presented as the percent inhibition of light emission compared to control. […]
Type: functional
Details: sporozoite; for IC90: read-out: LUCIFERASE INFECTION ASSAY - IC90

Structure (SMILES) | IC90 | other results
COc1ccc(/C=C/C(=O)Nc2ccc(C34CC5CC(CC(O)(C5)C3)C4)cc2)cc1OC | 4.89 µM | IC50 (HEPG2TOX_HILL_SLOPE 4.85, 2.53, HEPG2TOX_R_SQUARED 0.902, 0.960, PBLUC_HILL_SLOPE 2.45, PBLUC_R_SQUARED 0.68, read-out: LUCIFERASE INFECTION ASSAY - IC50): 1.99 µM
CC(C)[C@H](NC(=O)c1ccccc1Cl)C(=O)Nc1nc(-c2ccccn2)cs1 | 6.36 µM | IC50 (HEPG2TOX_HILL_SLOPE 4.61, HEPG2TOX_R_SQUARED 0.937, PBLUC_HILL_SLOPE 2.78, PBLUC_R_SQUARED 0.749, read-out: LUCIFERASE INFECTION ASSAY - IC50): 2.89 µM
CC1(C(=O)NCc2ccco2)Cc2c(-c3ccccc3)ccnc2O1 (configuration not stated) | 3.99 µM | IC50 (HEPG2TOX_HILL_SLOPE 4.72, HEPG2TOX_R_SQUARED 0.753, PBLUC_HILL_SLOPE 10.4, PBLUC_R_SQUARED 0.157, read-out: LUCIFERASE INFECTION ASSAY - IC50): 3.23 µM
CS(=O)(=O)Nc1cccc(-c2cn3c(-c4cccs4)cnc3cn2)c1 | > 8.91 µM | IC50 (HEPG2TOX_HILL_SLOPE 4.93, HEPG2TOX_R_SQUARED 0.12, read-out: LUCIFERASE INFECTION ASSAY - IC50): > 8.91 µM
O=C(Nc1nccs1)c1cc(-c2ccccc2)c(C(F)(F)F)s1 | 8.66 µM | IC50 (HEPG2TOX_HILL_SLOPE 4.77, HEPG2TOX_R_SQUARED 0.804, PBLUC_HILL_SLOPE 25.8, PBLUC_R_SQUARED 0.401, read-out: LUCIFERASE INFECTION ASSAY - IC50): 7.96 µM
CC1=C(c2nc(-c3ccc(C)cc3)no2)C(c2ccco2)NC(=S)N1 (configuration not stated) | > 10 µM | IC50 (HEPG2TOX_HILL_SLOPE 4.63, HEPG2TOX_R_SQUARED 0.779, PBLUC_HILL_SLOPE 2.07, PBLUC_R_SQUARED 0.517, read-out: LUCIFERASE INFECTION ASSAY - IC50): 7.61 µM
COc1ccc(OC)c(CCNc2nc3cnc(-c4cccc(OC(F)(F)F)c4)cc3n2C)c1 | 4.72 µM | IC50 (HEPG2TOX_HILL_SLOPE 4.6, HEPG2TOX_R_SQUARED 0.893, PBLUC_HILL_SLOPE 3.53, PBLUC_R_SQUARED 0.694, read-out: LUCIFERASE INFECTION ASSAY - IC50): 2.53 µM
N#Cc1c(N=Cc2c(O)n(-c3ccc(Br)cn3)c(=O)c3ccccc23)sc2c1CCC2 | > 10 µM | IC50 (HEPG2TOX_HILL_SLOPE 5.03, HEPG2TOX_R_SQUARED 0.905, PBLUC_HILL_SLOPE 1.74, PBLUC_R_SQUARED 0.542, read-out: LUCIFERASE INFECTION ASSAY - IC50): 6.14 µM
N#C/C(=C\c1ccc(Cl)cc1Cl)c1ccc(O)cc1 | > 11.4 µM | IC50 (HEPG2TOX_HILL_SLOPE 4.92, HEPG2TOX_R_SQUARED 0.97, PBLUC_HILL_SLOPE 12.5, PBLUC_R_SQUARED 0.376, read-out: LUCIFERASE INFECTION ASSAY - IC50): 10.5 µM
Cc1c(-c2ccccc2)sc2[nH]c(SC(C(=O)c3ccccc3)c3ccccc3)nc(=O)c12 (configuration not stated) | > 10 µM | IC50 (HEPG2TOX_HILL_SLOPE 4.76, HEPG2TOX_R_SQUARED 0.813, PBLUC_HILL_SLOPE 2.74, PBLUC_R_SQUARED 0.111, read-out: LUCIFERASE INFECTION ASSAY - IC50): 6.76 µM
Cc1sc2ncnc(N/N=C/c3cn(-c4ccccc4)nc3-c3ccc4c(c3)OCCO4)c2c1C | 3.63 µM | IC50 (HEPG2TOX_HILL_SLOPE 4.65, HEPG2TOX_R_SQUARED 0.952, PBLUC_HILL_SLOPE 26.5, PBLUC_R_SQUARED 0.19, read-out: LUCIFERASE INFECTION ASSAY - IC50): 3.34 µM
Cc1oc(C(C)(C)C)cc1-c1cc(NC(=O)Nc2ccccc2C#N)n(-c2cc(C(F)(F)F)cc(C(F)(F)F)c2)n1 | 3 µM | IC50 (HEPG2TOX_HILL_SLOPE 5.04, HEPG2TOX_R_SQUARED 0.982, PBLUC_HILL_SLOPE 7.22, PBLUC_R_SQUARED 0.381, read-out: LUCIFERASE INFECTION ASSAY - IC50): 2.22 µM
COCCCNc1nccc2nc(-c3cccc(OC(F)(F)F)c3)[nH]c12 | > 10 µM | IC50 (HEPG2TOX_HILL_SLOPE 4.74, HEPG2TOX_R_SQUARED 0.77, PBLUC_HILL_SLOPE 3.71, PBLUC_R_SQUARED 0.224, read-out: LUCIFERASE INFECTION ASSAY - IC50): 5.72 µM
Cc1cc[n+](CC(=O)Nc2ccc(Br)c(C)c2)cc1 | > 10 µM | IC50 (HEPG2TOX_HILL_SLOPE 5.04, HEPG2TOX_R_SQUARED 0.103, PBLUC_HILL_SLOPE 18.3, PBLUC_R_SQUARED 0.0767, read-out: LUCIFERASE INFECTION ASSAY - IC50): 9.35 µM
COc1cc(-c2cnn3ccc(Nc4ccc(C(C)C)cc4)nc23)cc(OC)c1OC | 4.97 µM | IC50 (HEPG2TOX_HILL_SLOPE 4.98, HEPG2TOX_R_SQUARED 0.891, PBLUC_HILL_SLOPE 3.46, PBLUC_R_SQUARED 0.366, read-out: LUCIFERASE INFECTION ASSAY - IC50): 2.63 µM
C/C(=N\NC(=N)N)c1ccc(C2CCCCC2)cc1 | > 10 µM | IC50 (HEPG2TOX_HILL_SLOPE 4.72, HEPG2TOX_R_SQUARED 0.94, read-out: LUCIFERASE INFECTION ASSAY - IC50): > 10 µM

Structure (SMILES) | IC90 | other results
CC(=O)c1sc(SCCS(=O)(=O)c2ccc(Cl)cc2)c2c1CCCC2=O | > 7.69 µM | IC50 (HEPG2TOX_HILL_SLOPE 4.99, HEPG2TOX_R_SQUARED 0.387, PBLUC_HILL_SLOPE 14.8, PBLUC_R_SQUARED 0.11, read-out: LUCIFERASE INFECTION ASSAY - IC50): > 7.69 µM
O=[N+]([O-])c1ccc(SCCO)c2nonc12 | 12.8 µM | IC50 (HEPG2TOX_HILL_SLOPE 4.76, HEPG2TOX_R_SQUARED 0.8, PBLUC_HILL_SLOPE 15.1, PBLUC_R_SQUARED 0.318, read-out: LUCIFERASE INFECTION ASSAY - IC50): 11 µM
CCC(C)NC(=O)c1c(NC(=O)c2cc(F)ccc2F)nc2ccc(C)cn12 (configuration not stated) | 3.36 µM | IC50 (HEPG2TOX_HILL_SLOPE 5, HEPG2TOX_R_SQUARED 0.803, PBLUC_HILL_SLOPE 11.7, PBLUC_R_SQUARED 0.232, read-out: LUCIFERASE INFECTION ASSAY - IC50): 2.78 µM
CCOc1ccc(C=C(c2nc3ccccc3s2)c2nc3ccccc3s2)cc1OC | 4.51 µM | IC50 (HEPG2TOX_HILL_SLOPE 4.58, HEPG2TOX_R_SQUARED 0.874, PBLUC_HILL_SLOPE 9.07, PBLUC_R_SQUARED 0.629, read-out: LUCIFERASE INFECTION ASSAY - IC50): 3.54 µM
CCN1C(=O)N(CCCc2cccnc2)C(=O)C12CCN(Cc1ccc(-c3ccccc3C)cc1)CC2 | 2.68 µM | IC50 (HEPG2TOX_HILL_SLOPE 4.7, HEPG2TOX_R_SQUARED 0.961, PBLUC_HILL_SLOPE 9.72, PBLUC_R_SQUARED 0.497, read-out: LUCIFERASE INFECTION ASSAY - IC50): 2.14 µM
CC12CCC(=O)C(C(F)(F)F)=C1C=CC1C2CCC2(C)C(O)CCC12 (configuration not stated) | 3.6 µM | IC50 (HEPG2TOX_HILL_SLOPE 4.77, HEPG2TOX_R_SQUARED 0.78, PBLUC_HILL_SLOPE 14.8, PBLUC_R_SQUARED 0.24, read-out: LUCIFERASE INFECTION ASSAY - IC50): 3.1 µM
Cn1nnnc1Sc1nc(-c2ccccc2)nc2ccccc12 | 5.09 µM | IC50 (HEPG2TOX_HILL_SLOPE 4.8, HEPG2TOX_R_SQUARED 0.994, PBLUC_HILL_SLOPE 8.61, PBLUC_R_SQUARED 0.614, read-out: LUCIFERASE INFECTION ASSAY - IC50): 3.95 µM
CC(=O)c1cccc(-c2ccc3ncc(-c4cccc(O)c4)n3n2)c1 | 3.6 µM | IC50 (HEPG2TOX_HILL_SLOPE 4.7, HEPG2TOX_R_SQUARED 0.977, PBLUC_HILL_SLOPE 30, PBLUC_R_SQUARED 0.547, read-out: LUCIFERASE INFECTION ASSAY - IC50): 3.34 µM
COc1cc(OC)cc(-c2cnc3cnc(-c4ccc(N5CCN(C)CC5)nc4)cn23)c1 | > 7.67 µM | IC50 (HEPG2TOX_HILL_SLOPE 4.69, HEPG2TOX_R_SQUARED 0.215, PBLUC_HILL_SLOPE 12, PBLUC_R_SQUARED 0.625, read-out: LUCIFERASE INFECTION ASSAY - IC50): 7.27 µM
CCS(=O)(=O)c1ncc(Cl)c(C(=O)Nc2cc(Cl)cc(Cl)c2)n1 | 3.19 µM | IC50 (HEPG2TOX_HILL_SLOPE 4.63, HEPG2TOX_R_SQUARED 0.595, PBLUC_HILL_SLOPE 15.4, PBLUC_R_SQUARED 0.531, read-out: LUCIFERASE INFECTION ASSAY - IC50): 2.76 µM
COc1cc(/C=C/C(=O)c2cccc(Cl)c2)cc(Br)c1OCC(=O)N(C)C | 4.57 µM | IC50 (HEPG2TOX_HILL_SLOPE 4.93, 12.4, HEPG2TOX_R_SQUARED 0.976, 0.384, PBLUC_HILL_SLOPE 9.73, 46.2, PBLUC_R_SQUARED 0.151, 0.563, read-out: LUCIFERASE INFECTION ASSAY - IC50): 3.93 µM
O=C(c1c[nH]c(-c2ccnc(N3CCCC3)c2)c1)c1cc(Cl)ccc1O | 1.6 µM | IC50 (HEPG2TOX_HILL_SLOPE 4.74, 0.999, HEPG2TOX_R_SQUARED 0.925, 0.982, PBLUC_HILL_SLOPE 1.70, 2.23, PBLUC_R_SQUARED 0.381, 0.812, read-out: LUCIFERASE INFECTION ASSAY - IC50): 0.598 µM
Cc1ccc(C(C)NC(=O)Cc2c(C)[nH]c(-c3ccccn3)nc2=O)cc1 (configuration not stated) | > 10 µM | IC50 (HEPG2TOX_HILL_SLOPE 4.86, HEPG2TOX_R_SQUARED 0.498, PBLUC_HILL_SLOPE 12, PBLUC_R_SQUARED 0.399, read-out: LUCIFERASE INFECTION ASSAY - IC50): 9.36 µM
CCCOc1ccc2cc(C(=O)c3c(C)[nH]c(C)c3C(=O)OCC)oc2c1 | > 10 µM | IC50 (HEPG2TOX_HILL_SLOPE 4.85, HEPG2TOX_R_SQUARED 0.69, PBLUC_HILL_SLOPE 11.9, PBLUC_R_SQUARED 0.276, read-out: LUCIFERASE INFECTION ASSAY - IC50): 9.4 µM
O=S(=O)(c1ccc2ccccc2c1)N1CCCC1c1ccncc1 (configuration not stated) | > 10 µM | IC50 (HEPG2TOX_HILL_SLOPE 4.75, HEPG2TOX_R_SQUARED 0.828, PBLUC_HILL_SLOPE 11, PBLUC_R_SQUARED 0.196, read-out: LUCIFERASE INFECTION ASSAY - IC50): 9.32 µM
